Results as given in patent US11345697B1, “Crystalline berberine ascorbate salt, methods of preparation and applications thereof” (Beiture LLC, priority 2020, dated 2022).
One block for each compound: values may come before it.

Columns and labels:
[1] = Thermogravimetry analysis (TGA); assay type: physicochemical; settings: for TGA mass loss: heating from about 25° C. to about 100° C.
Method: TGA was performed on samples prepared according to standard methods using a Q SERIES™ Q5000 thermogravimetry analyzer available from TA Instruments INSTRUMENTS® (New Castle, Del.). A sample (approximately 5 mg) was placed into an aluminum sample pan and transferred to the TGA furnace. The instrument was purged with nitrogen at 50 mL/min and data collected between 25° C. and 300° C., using a dynamic heating rate of 10° C./minute. Thermal data was analyzed using standard software, e.g., Universal Analysis v.4.5A from TA INSTRUMENTS®.

[2] = cited from earlier work
[3] = 25° C.; AAPS PharmSciTech, 2010, 11(3), 1466-1475; cited from earlier work
[4] = Method: 50 mg of crystalline berberine ascorbate Form A (from example 1) was suspended in 0.20 ml of water.
50 mg of crystalline berberine chloride dihydrate (from Sigma-Aldrich) was suspended in 10 ml of water. […] The solubility residue was isolated by filtration.

[5] = Hygroscopicity / form stability versus relative humidity; assay type: physicochemical; settings: up to 70% relative humidity, without a form change
Remark: listed apart in the source

Structure (SMILES): COc1ccc2c(c1OC)C(C1CCCCC1=O)N1CCc3cc4c(cc3C1=C2)OCO4 (stereo not drawn) [berberine cyclohexanone adduct]
- TGA mass loss [1]: 0.3%

Structure (SMILES): COc1ccc2cc3[n+](cc2c1OC)CCc1cc2c(cc1-3)OCO2 [berberine chloride]
- loss of water ([2]; elevated temperature or low humidity environment): more than 8%
- uptake of water ([2]; in water or high humidity environment, converts to tetrahydrate form): about 8%
- aqueous solubility (literature value) [3]: 1960 ± 110 µg/mL
- solid form of solubility residue (powder X-ray pattern) [4]: converted berberine chloride tetrahydrate
- solubility in water [4]: less than 5 g/L

Structure (SMILES): COc1ccc2cc3[n+](cc2c1OC)CCc1cc2c(cc1-3)OCO2 [crystalline berberine ascorbate Form A, berberine ascorbate]
- hygroscopicity [5]: non-hygroscopic
- weight loss in thermal study ([1]; heated to about 150° C.): no significant weight loss
- TGA mass loss [1]: 0.4%
- aqueous solubility, times higher than commercial berberine hydrochloride [4]: more than 50 times
- solubility in water [4]: more than 250 g/L

Structure (SMILES): COc1ccc2c(c1OC)C(CC(=O)CC(C)C)N1CCc3cc4c(cc3C1=C2)OCO4 (stereo not drawn) [berberine methyl isobutyl ketone adduct]
- TGA mass loss [1]: 0.3%

Structure (SMILES): COc1ccc2c(c1OC)C(CC(=O)C(C)C)N1CCc3cc4c(cc3C1=C2)OCO4 (stereo not drawn) [berberine methyl isopropyl ketone adduct]
- TGA mass loss [1]: 0.1%

Structure (SMILES): CCC(=O)CC1c2c(ccc(OC)c2OC)C=C2c3cc4c(cc3CCN21)OCO4 (stereo not drawn) [berberine methyl ethyl ketone adduct]
- melting point: ~ 130 °C
- TGA mass loss [1]: 0.4%

More lines, now with the values ahead:

- TGA mass loss [1]: 2.5%
Structure (SMILES): COc1ccc2cc3[n+](cc2c1OC)CCc1cc2c(cc1-3)OCO2 [crystalline berberine ascorbate Form B, berberine ascorbate]

- TGA mass loss [1]: 0.3%
Structure (SMILES): COc1ccc2c(c1OC)C(CC(=O)c1ccccc1)N1CCc3cc4c(cc3C1=C2)OCO4 (stereo not drawn) [berberine methyl phenyl ketone adduct]

- TGA mass loss [1]: 0.3%
Structure (SMILES): COc1ccc2c(c1OC)C(CC(C)=O)N1CCc3cc4c(cc3C1=C2)OCO4 (stereo not drawn) [crystalline berberine acetone adduct, berberine acetone adduct]
